From PubChem BioAssay (NCI)
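Compound exposure: 48 hours, 5 concentrations, 96-well plates. Definition used: TGI = concentration required for complete inhibition of growth.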

Assays:
Assay in all cases: inhibition of tumour cell growth, NCI panel, 48 h
SF-539 CNS = system: SF-539 CNS
MCF7 breast = system: MCF7 breast
SW-620 colon = system: SW-620 colon
NCI-H460 lung = system: NCI-H460 lung
OVCAR-4 ovarian = system: OVCAR-4 ovarian
SF-268 CNS = system: SF-268 CNS
LOX IMVI melanoma = system: LOX IMVI melanoma
HT29 colon = system: HT29 colon
786-0 renal = system: 786-0 renal
IGROV1 ovarian = system: IGROV1 ovarian
MOLT-4 leukemia = system: MOLT-4 leukemia
M14 melanoma = system: M14 melanoma
SF-295 CNS = system: SF-295 CNS
SN12C renal = system: SN12C renal
UACC-62 melanoma = system: UACC-62 melanoma
EKVX NSCLC = system: EKVX NSCLC
CAKI-1 renal = system: CAKI-1 renal
NCI-H522 lung = system: NCI-H522 lung
A498 renal = system: A498 renal

| SMILES | TGI (SF-539 CNS) [µM] | TGI (MCF7 breast) [µM] | TGI (SW-620 colon) [µM] | TGI (NCI-H460 lung) [µM] | TGI (OVCAR-4 ovarian) [µM] | TGI (SF-268 CNS) [µM] | TGI (LOX IMVI melanoma) [µM] | TGI (HT29 colon) [µM] | TGI (786-0 renal) [µM] | TGI (IGROV1 ovarian) [µM] | TGI (MOLT-4 leukemia) [µM] | TGI (M14 melanoma) [µM] | TGI (SF-295 CNS) [µM] | TGI (SN12C renal) [µM] | TGI (UACC-62 melanoma) [µM] | TGI (EKVX NSCLC) [µM] | TGI (CAKI-1 renal) [µM] | TGI (NCI-H522 lung) [µM] | TGI (A498 renal) [µM] |
| --- | --- | --- | --- | --- | --- | --- | --- | --- | --- | --- | --- | --- | --- | --- | --- | --- | --- | --- | --- |
| c1cc(CN2CCNCCNCCNCC2)cc(CN2CCNCCNCCNCC2)c1 | > 100 | > 100 | > 100 | > 100 | > 100 | > 100 | > 100 | > 100 | > 100 | > 100 | > 100 | > 100 | > 100 | > 100 | > 100 | > 100 |  |  |  |
| C[C@H](NC(=O)CNC(=O)CCCCCC(=O)NCC(=O)N[C@@H](C)C(=O)OCc1ccccc1)C(=O)OCc1ccccc1 | > 100 | > 100 | > 100 |  | > 100 | > 100 | > 100 | > 100 | > 100 | > 100 | > 100 | > 100 | > 100 | > 100 | > 100 | > 100 | > 100 |  |  |
| CCC(=O)C(CCN1CCC(N2C(=O)C(CCC#N)c3ccccc32)CC1)(c1ccccc1)c1ccccc1 (stereo not given) | 34.5 | 25.5 | 24 | 26.9 |  | 34.5 | 27 | 12.9 | 24.7 | 30.5 | 25 | 22.2 | 26.1 | 34 | 32.6 |  | 96.4 | 25.8 | 40.1 |
| c1cncc(CSc2ncnc3nc[nH]c23)c1 |  | > 100 | > 100 | > 100 | > 100 | > 100 | > 100 | > 100 | > 100 | > 100 | > 100 | > 100 | > 100 | > 100 | > 100 | > 100 | > 100 | > 100 | > 100 |
| CCCC(=O)OCOC(=O)N(C)N=Nc1ccc(C(=O)OCC)cc1 |  | 45.5 | 66.3 | 71.8 | > 100 | > 100 | 37 | 41.6 | 59.8 | > 100 | > 100 | > 100 | 53.8 | 76.7 | 44.2 | > 100 | > 100 | 38 | > 100 |
| COc1ccc(-n2c(C)nc3ccc(NC4OC(CO)C(O)C(O)C4O)cc3c2=O)cc1 (stereo not given) |  | > 100 | > 100 | > 100 | > 100 | > 100 | > 100 | > 100 | > 100 | > 100 | > 100 |  | > 100 | > 100 | > 100 | > 100 | > 100 | > 100 | > 100 |
| CC1CC(N2CCOCC2)=Nc2ccccc2N1Cc1ccccc1 (stereo not given) |  |  | > 100 | > 100 | > 100 | > 100 | > 100 | > 100 | > 100 | > 100 |  | > 100 | > 100 | > 100 | > 100 | > 100 | > 100 | > 100 | 52.3 |
| CN1CCC/C1=C1/C(=O)N(c2ccccc2)N=C1c1ccc[nH]1 |  | > 100 | > 100 | > 100 | > 100 | > 100 | > 100 |  | > 100 | > 100 | > 100 | > 100 | > 100 | > 100 | > 100 | > 100 | > 100 | > 100 | > 100 |
| O=c1[nH]c2nc[nH]c2c(=O)n1C1CCCCC1 | > 100 | > 100 | > 100 | > 100 | > 100 | > 100 |  | > 100 | > 100 | > 100 | > 100 | > 100 | > 100 | > 100 | > 100 | > 100 | > 100 | > 100 | > 100 |
| O=C1/C(=C/c2cccs2)NC(=S)N1CN1CCCCC1 |  | > 100 | > 100 |  | > 100 | > 100 | > 100 | > 100 | > 100 | > 100 | > 100 | > 100 | > 100 | > 100 | > 100 | > 100 |  | > 100 | > 100 |
| C=C(C)CCC1CC=[N+]([O-])OC1C(C)(C)C (stereo not given) | > 100 | 89.9 | > 100 | > 100 |  | > 100 | 40.3 | > 100 | > 100 | > 100 | > 100 | 63.5 | > 100 | > 100 | > 100 | > 100 | 75.3 | 58.5 | > 100 |
| S=C(N/N=C/c1ccccn1)N1CCCCCC1 | 0.305 | 25.3 | > 100 | 0.211 | 37 |  | 64.1 | > 44.2 | 1.22 |  |  | 0.251 | > 100 | 0.359 | 0.364 | 4.04 |  | 5.9 | 0.735 |
| CN(CCNC(=S)c1cn(C)c2c1ccc1ccccc12)CCNC(=S)c1cn(C)c2c1ccc1ccccc12 | > 100 | > 100 | > 100 | > 100 | > 100 | > 100 | > 100 | > 100 | > 100 | > 100 | > 100 |  | > 100 | > 100 | > 100 | > 100 | > 100 | > 100 |  |
| COc1cccc(C(NC2=NCCC=N2)c2cc3c(cc2O)OCO3)c1O (stereo not given) | 46.8 | 35.3 | 41.8 | > 100 |  | > 100 | 41.2 | > 100 | 25.6 | > 100 | 63 | > 100 | > 100 | 41.4 | 59 | > 100 | > 100 | 40.2 | 78.8 |
| C=C(CCC=C(C)C)C1CC=C(C)CC1 (stereo not given) | 68.2 | 42.2 | 53.6 | 40.1 |  | > 100 | 21.9 |  | 35.7 | 28.4 |  | > 100 | 45 | 41.3 | > 100 | 92.7 | 42.2 | 32.3 | > 100 |
| C[C@H]1C[C@H]2[C@@H]3CCC4=CC(=O)C=C[C@]4(C)C3=CC[C@]2(C)[C@@]1(O)C(=O)CO |  | > 100 |  | > 100 | > 100 | > 100 | > 100 | > 100 | > 100 | > 100 | > 100 | > 100 | > 100 | > 100 | > 100 | > 100 | > 100 | > 100 | > 100 |
| O/N=C1/CCCc2nonc21 | > 100 | > 100 | > 100 | > 100 | > 100 | > 100 | > 100 | > 100 | > 100 | > 100 | > 100 | > 100 | > 100 | > 100 | > 100 | > 100 | > 100 |  |  |
| O=C(O)Cc1cccc2c(=O)c3cccc([N+](=O)[O-])c3[nH]c12 | 78.1 | > 100 | > 100 | > 100 | > 100 |  | > 100 | > 100 | > 100 | > 100 | > 100 | > 100 | > 100 | > 100 | 76 |  | > 100 | > 100 | > 100 |
| C=CCNC(=O)CN(CC(=O)O)C1CCCCC1N(CC(=O)O)CC(=O)O (stereo not given) | > 100 | > 100 | > 100 | > 100 | > 100 | > 100 | > 100 | > 100 | > 100 | > 100 | > 100 |  | > 100 | > 100 | > 100 |  | > 100 | > 100 | > 100 |
| CNC(=O)CCCNC(=O)CCCC(=O)OC | > 100 | > 100 | > 100 | > 100 |  | > 100 | > 100 | > 100 | > 100 | > 100 | > 100 | > 100 | > 100 | > 100 | > 100 | > 100 | > 100 | > 100 | > 100 |
| O=C1CSC(c2ccccc2O)N1c1ccc(Oc2ccc(Cl)cc2)c(Cl)c1 (stereo not given) | 32.9 | 86.3 | > 100 | 43.6 | 66.1 | 31.4 | 32.8 | 37.3 | 36.4 | 77.4 | 81 | 76.9 | 34.5 | 39.5 | 34.3 | 45.9 | 74 | 36.8 |  |
| CCC(C)N1CN(c2ccccc2)C2(CCN(CCCSc3ccc(F)cc3)CC2)C1=O (stereo not given) | 6.32 | 11.1 | 17.3 |  |  | 23.7 | 8.35 | 8.3 | 7.88 | 14.2 | 13.3 | 7.08 | 5.57 | > 100 | 17.5 | 10.4 | 11 | 18.9 |  |
| CCN1C[C@]2(C)CC[C@H](OC)C34C5C[C@@H]6[C@@H](OC)C[C@@](OC)(C5[C@H]6OCc5ccccc5)C(C13)[C@H](OC(C)=O)[C@@H]42 (stereo not given in full) | > 100 | > 100 | > 100 | > 100 | > 100 | > 100 | > 100 | > 100 | > 100 | > 100 | > 100 | > 100 | > 100 | > 100 | > 100 | > 100 |  |  | > 100 |
| CC(=O)N(CC(=O)C(=O)NNc1ccoc1)c1ccc(Cl)cc1 | > 100 | > 100 | > 100 | > 100 | > 100 | > 100 | > 100 | > 100 | > 100 | > 100 | > 100 | > 100 | > 100 | > 100 |  | > 100 | > 100 | > 100 |  |
| Cc1ccc(/C=C2\Cc3cc(C)c(C)cc3C2=O)c(C(=O)O)c1 | 74.7 | > 100 | > 100 | > 100 |  | > 100 | > 100 | > 100 | > 100 | > 100 | > 100 |  | > 100 | > 100 | > 100 | > 100 | > 100 | > 100 | 61.3 |
| CCOC(=O)/C=C/C1(CCOC(C)=O)CCCCC1 | > 10 | > 10 | > 10 | > 10 | > 10 | > 10 | > 10 | > 10 | > 10 | > 10 | > 10 | > 10 | > 10 | > 10 | > 10 | > 10 | > 10 | > 10 |  |
| O=S(=O)(O)c1ccc2cc(N=Nc3c(O)ccc4ccccc34)ccc2c1 | > 100 | > 100 | > 100 | > 100 | > 100 | > 100 |  | > 100 | > 100 | > 100 | > 100 | > 100 | > 100 | > 100 | > 100 | > 100 | > 100 | > 100 | > 100 |
